Assays:
HGA agent = conditions: reported by Klein et al., Antimicrob. Agents and Chemother. 1997; cited from earlier work
[1] = tested on: acute lymphocytic leukemia (ALL); test: Rifampin treatment of Patient two, end stage marrow failure; type: in vivo, human; conditions: person, ALL recurrence after marrow transplant, no other treatment given
Source text: No other treatment was available or given. After 2 months of rapid improvement, during which they regained the ability to walk and was discharged from the hospital, they succumbed to an acute apparently unrecognized cytomegalovirus infection.

[2] = tested on: intracellular organisms in the genus of Ehrlich/Anaplasma; conditions: cited from earlier work
[3] = tested on: acute myelogenous leukemia (AML); test: Rifampin treatment of Patient one; type: in vivo, human
Experimental: This was a child with acute myelogenous leukemia (AML), who had blood counts of less than 2000 platelets and less than 300 white cells, persisting for 3 months. They were treated with Rifampin and on day 11 […] white cell count increased to 21,000, with 75% blasts.

| Compound | activity against the HGA agent (HGA agent) | other results |
| --- | --- | --- |
| thrmethoprim-sulfamethoxazolem | resistant |  |
| Gentamicin | weakly active, but not bactericidal |  |
| CC1(C)S[C@@H]2[C@H](NC(=O)[C@H](N)c3ccccc3)C(=O)N2[C@H]1C(=O)O [ampicillin] | resistant |  |
| C[C@H]1c2cccc(O)c2C(=O)C2=C(O)[C@]3(O)C(=O)C(C(N)=O)=C(O)[C@@H](N(C)C)[C@@H]3[C@@H](O)[C@@H]21 [doxycycline] | most active, and bactericidal |  |
| imipenem-cilastatin | resistant |  |
| CC[C@H]1OC(=O)[C@H](C)[C@@H](O[C@H]2C[C@@](C)(OC)[C@@H](O)[C@H](C)O2)[C@H](C)[C@@H](O[C@@H]2O[C@H](C)C[C@H](N(C)C)[C@H]2O)[C@](C)(O)C[C@@H](C)C(=O)[C@H](C)[C@@H](O)[C@]1(C)O [erythromycin] | resistant |  |
| N[C@@H]1[C@H]2CN(c3nc4c(cc3F)c(=O)c(C(=O)O)cn4-c3ccc(F)cc3F)C[C@@H]12 [trovafloxacin] | most active, and bactericidal |  |
| Rifampicin [Rifampin] | most active, and bactericidal | clinical outcome [1]: remarkable though temporary recovery; effectiveness against intracellular organisms of genus Ehrlich/Anaplasma [2]: particularly effective; platelets ([3]; after treatment, less than 2000 platelets before): increased less rapidly; blasts ([3]; day 11 of treatment, share of white cell count): 75%; white cell count ([3]; day 11 of treatment, child, less than 300 white cells for 3 months before): 21,000 |
| CC[C@H]1OC(=O)[C@H](C)[C@@H](O[C@H]2C[C@@](C)(OC)[C@@H](O)[C@H](C)O2)[C@H](C)[C@@H](O[C@@H]2O[C@H](C)C[C@H](N(C)C)[C@H]2O)[C@](C)(O)C[C@@H](C)CN(C)[C@H](C)[C@@H](O)[C@]1(C)O [azrithromycin] | resistant |  |
| CO/N=C(\C(=O)N[C@@H]1C(=O)N2C(C(=O)O)=C(CSc3nc(=O)c(O)nn3C)CS[C@H]12)c1csc(N)n1 [cefatriaxone] | resistant |  |
| O=C(O)c1cn(C2CC2)c2cc(N3CCNCC3)c(F)cc2c1=O [ciprofloxacin] | most active, and bactericidal |  |
| O=C(N[C@H](CO)[C@H](O)c1ccc([N+](=O)[O-])cc1)C(Cl)Cl [chloramphenicol] | weakly active, but not bactericidal |  |
| CO[C@H]1/C=C/O[C@@]2(C)Oc3c(C)c(O)c4c(c3C2=O)C2=NC3(CCN(CC(C)C)CC3)NC2=C(NC(=O)/C(C)=C\C=C\[C@H](C)[C@H](O)[C@@H](C)[C@@H](O)[C@@H](C)[C@H](OC(C)=O)[C@@H]1C)C4=O [rifabutin] | most active, and bactericidal |  |

Source: patent US20130236898A1, “Anaplasma FAMILY MEMBERS CAUSE A NUMBER OF BLOOD-BORNE DISEASES” (priority 2012, published 2013)
